Test results published in patent US20200368198A1, “METHODS FOR INCREASING FERTILITY” (NEWSOUTH INNOVATIONS PTY LIMITED, priority 2017, published 2020).
Several values for one entry are separate records, joined by “and”; a condition that tells them apart may be missing. Equal entries are not always repeated. Entries after “also recorded” stand apart in the source; their conditions may differ.

Experiments:
C57BL6 females [1] = assay: Reversal design: oocyte yield, cisplatin followed by NMN 4 weeks later; assay type: in vivo, mice; settings: cisplatin 5 mg/kg i.p., per mouse
Experimental: (§1) To assess oocyte yield, and mice were hormonally stimulated to superovulated by intraperitoneal injection with 7.5 IU/mL of Pregnant Mare's Serum Gonadotropin (PMSG) (Folligon; Intervet, Boxmeer, Holland) to stimulate follicular growth. After 44-46 hours, ovaries were collected in HEPES-buffered minimum essential medium (aMEM; Gibco Life Technologies, Grand Island, N.Y.) supplemented with 50 µM of 3-isobuty-1-methylxanthine (IBMX) (Sigma aldrich, NSW, AU) (M2 medium) to maintain meitotic arrest at germinal vesicle stage. Cumulus oocyte complexes (COCs) were isolated from preovulatory follicles using a 27-gauge needle and collected using flame-pulled borosilicate Pasteur pipettes in M2 medium supplemented with 3 mg/ml bovine serum albumin (BSA; Sigma Aldrich, St. Louis, Mo.) and 100 μM IBMX (Sigma Aldrich). Cumulus oocyte complexes (COCs) were mechanically denuded of cumulus cells by pipetting, and the denuded oocytes were transferred to another dish containing a drop of fresh M2-medium plus IBMX on heat block with 37° C. with lid to protect oocytes from light.
Next, we decided to investigate whether NMN treatment delivered some time following chemotherapy treatment could actively reverse chemotherapy induced infertility. […]

C57BL6 females [2] = assay: Reversal design: pups born after chemotherapy followed by NMN; assay type: in vivo, mice; settings: cisplatin 5 mg/kg i.p., NMN delivered well after chemotherapy; 6 mating rounds
Source text: In Examples 2-4, it was shown that co-treatment with NMN during chemotherapy treatment could protect against infertility. Next, we decided to investigate whether NMN treatment delivered some time following chemotherapy treatment could actively reverse chemotherapy induced infertility. […] The rationale of this experimental design is to investigate whether NMN has the ability to induce regeneration of the ovary. According to the standard dogma of reproductive biology, mammals are born with a set number of follicles which are slowly released as oocytes over the course of a lifetime, with the ovaries incapable of regenerating new follicles.

[3] = test system: C57BL6 and SwissTacAusb female mice; assay: Oocyte yield in aged mice treated with NMN; assay type: in vivo; settings: 15 month-old mice, NMN drinking water 2 g/L, 4 weeks, versus untreated
Experimental: as §1, with “Cumulus oocyte complexes (COCs) were mechanically denuded of cumulus cells by pipetting, and the denuded oocytes were transferred to another dish containing a drop of fresh M2-medium plus IBMX on heat block with 37° C. with lid to protect oocytes from light.” left out
Systemic treatment with the NAD^+ precursor nicotinamide mononucleotide (NMN) increases intracellular NAD^+ levels, and we hypothesised that NMN treatment could restore the activity of SIRT2 to stabilise BubR1 and maintain oocyte reserve and competence into later ages. […] Animals were super-ovulated, and oocyte yield was assessed. […]

SwissTacAusb female mice = assay: Oocyte yield in high fat fed mice treated with NMN; assay type: in vivo; settings: SwissTacAusb females, 3 months high fat feeding; NMN versus untreated high fat fed littermates
Source text: Systemic treatment with the NAD^+ precursor nicotinamide mononucleotide (NMN) increases intracellular NAD^+ levels, and we hypothesised that NMN treatment could restore the activity of SIRT2 to stabilise BubR1 and maintain oocyte reserve and competence into later ages. We obtained 15 month-old female mice, an age at which this species is functionally infertile, and treated them with NMN through addition to drinking water (2 g/L) for 4 weeks. Animals were super-ovulated, and oocyte yield was assessed. […] Obesity is a major risk factor for female infertility, and to assess whether a similar mechanism was at work, we subjected young SwissTacAusb female mice to 3 months of high fat feeding, followed by NMN treatment for 4 weeks.

oocytes = assay: Spindle structure staining of oocytes from aged NMN treated mice; assay type: in vivo
Source text: (§2) To determine the impact of NMN on spindle assembly, oocytes from C57BL6 mice were next stained for spindle structure (FIG. 3F).
As with other sirtuins, SIRT2 is critically dependent for its activity on levels of its enzymatic co-factor NAD^+, which naturally declines with old age. We hypothesized that increasing NAD^+ availability during old age could restore SIRT2 activity, and recapitulate the improvements in fertility observed with old age during SIRT2 over-expression. To test this, non-genetically modified C57BL6 female mice were treated with the NAD^+ precursor nicotinamide mononucleotide (NMN), as in the Examples above. Mice were treated at 15 months of age, when mice normally experience ovarian failure (FIG. 34). Three weeks later, oocytes were harvested, and analysed for spindle structure (FIG. 35).

ovaries = assay: Histological analysis of ovaries from NMN treated females; assay type: in vivo, mice
Source text: Ovaries were dissected from freshly euthanased animals, and preserved in 10% neutral buffered formalin for 24 hr, followed by 70% ethanol, until embedding in paraffin blocks. Blocks were sectioned on a microtome and subjected to haematoxylin and eosin (H&E) staining. Primordial follicles were manually counted by a blinded investigator.
as §2

C57BL6 mice = assay: Breeding trial with NMN in drinking water; assay type: in vivo; settings: NMN 2 g/L drinking water
Source text: FIG. 4. A) is a graph showing litter size. C57BL6 mice were maintained on normal drinking water supplemented with or without NMN (2 g/L) from 2 months of age. From 4 months of age, animals were timed mated with proven stud male C57BL6. Pregnancy was confirmed using micro-ultrasound for the presence of a foetal heartbeat, and the number of pups born in subsequent litters recorded. B) is a graph showing body weights of pups from breeding trials at 12 days of age.
(§3) To determine whether NMN treatment could improve overall, functional fertility, we conducted a breeding trial in C57BL6 mice. Both pregnancy success rates and litter size (FIG. 4A) were improved in animals that received NMN, further confirming the importance of this mechanism to female fertility. Offspring from females that received NMN treatment developed at a similar rate to offspring from untreated females, even after challenging with high fat feeding (FIG. 5A and 5B).

[4] = test system: offspring of C57BL6 females; assay: Offspring of NMN treated females: development and glucose tolerance; assay type: in vivo, mice; settings: offspring from NMN treated versus untreated females
Source text: FIG. 5. Offspring from NMN treated females, or non-NMN treated females, were maintained on a chow diet or subjected to feeding of a high fat diet (HFD) from 8 weeks of age. A) is a graph of body weights of animals until 23 weeks of age. B) is a graph of fat mass of animals after 7 weeks of HFD feeding. C) is a graph of glucose tolerance test in animals at 7 weeks after chow or HFD feeding (2 g/kg, 6 hr fast). D) is a graph of area under the curve for glucose tolerance tests. Each group represents offspring from at least 7 different females. Error bars are SD.
as §3

`NC(=O)c1ccc[n+]([C@@H]2O[C@H](COP(=O)([O-])O)[C@@H](O)[C@H]2O)c1` [NMN, nicotinamide mononucleotide] was tested, and the Oocyte yield (C57BL6 females [1]) was “restoration of oocyte number and 9 and 17 and 10”, the “Number of pups born (cisplatin followed by NMN)” value (C57BL6 females [2]) was “complete restoration” and the “COC (oocyte) yield in aged females” value [3] was “more than doubled; also recorded: dramatically increased”. The “Oocyte yield in high fat fed mice” value (SwissTacAusb female mice) was “higher oocyte yield”, the “Spindle structure in oocytes” value (oocytes; 15 month old C57BL6 females, NMN 3 weeks) was “reverse severe spindle defects” and the “Spindle and chromosome arrangement in oocytes” value (oocytes; aged C57BL6 females, NMN 2 g/L drinking water, 4 weeks) was “bi-polar, barrel-shaped arrangement with well-aligned chromosomes”. For the same molecule, the “Oogonial reserve, histological analysis of ovaries” value (ovaries) was “improved oogonial reserve”, the Litter size (C57BL6 mice) was “improved” and the Pregnancy success rates (C57BL6 mice) was “improved”. The “Glucose tolerance tests in offspring” value [4] was “no change”.
